Measurements reported in patent publication US10442807B2, “Aryl substituted bicyclic compounds as herbicides” (FMC Corporation, priority 2015, dated 2019).

Legend:
Format in all cases: in vivo
[1] = test system: galium (catchweed bedstraw, Galium aparine); assay: Test A postemergence application, visual injury rating; settings: approx. 10 d, 0 = no effect, 100 = complete control
Description: (§1) Seeds of plant species selected from barnyardgrass (Echinochloa crus-galli), kochia (Kochia scoparia), ragweed (common ragweed, Ambrosia elation), ryegrass, Italian (Italian ryegrass, Lolium multiflorum), foxtail, giant (giant foxtail, Setaria faberii), and pigweed (Amaranthus retroflexus), were planted into a blend of loam soil and sand and treated preemergence with a directed soil spray using test chemicals formulated in a non-phytotoxic solvent mixture which included a surfactant. At the same time, plants selected from these weed species and also blackgrass (Alopecurus myosuroides), galium (catchweed bedstraw, Galium aparine), wheat (Triticum aestivum), and corn (Zea mays) were planted in pots containing the same blend of loam soil and sand and treated with postemergence applications of test chemicals formulated in the same manner. Plants ranged in height from 2 to 10 cm and were in the one- to two-leaf stage for the postemergence treatment. Treated plants and untreated controls were maintained in a greenhouse for approximately 10 d, after which time all treated plants were compared to untreated controls and visually evaluated for injury. Plant response ratings, summarized in Table A, are based on a 0 to 100 scale where 0 is no effect and 100 is complete control. A dash (-) response means no test result.

corn (Zea mays) = assay: as above; settings: approx. 10 d, 0 = no effect, 100 = complete control
Description: as §1

[2] = test system: ragweed (common ragweed, Ambrosia elation); assay: as above; settings: approx. 10 d, 0 = no effect, 100 = complete control
Description: as §1

[3] = test system: ryegrass, Italian (Italian ryegrass, Lolium multiflorum); assay: as above; settings: approx. 10 d, 0 = no effect, 100 = complete control
Description: as §1

[4] = test system: barnyardgrass (Echinochloa crus-galli); assay: as above; settings: approx. 10 d, 0 = no effect, 100 = complete control
Description: as §1

kochia (Kochia scoparia) [5] = assay: as above; settings: approx. 10 d, 0 = no effect, 100 = complete control
Description: as §1

[6] = test system: blackgrass (Alopecurus myosuroides); assay: as above; settings: approx. 10 d, 0 = no effect, 100 = complete control
Description: as §1

[7] = test system: pigweed (Amaranthus retroflexus); assay: as above; settings: approx. 10 d, 0 = no effect, 100 = complete control
Description: as §1

[8] = test system: wheat (Triticum aestivum); assay: as above; settings: approx. 10 d, 0 = no effect, 100 = complete control
Description: as §1

[9] = test system: foxtail, giant (giant foxtail, Setaria faberii); assay: as above; settings: approx. 10 d, 0 = no effect, 100 = complete control
Description: as §1

[10] = test system: ragweed (common ragweed, Ambrosia elation); assay: Test A preemergence, directed soil spray, visual injury rating; settings: approx. 10 d, 0 = no effect, 100 = complete control
Description: as §1

[11] = test system: ryegrass, Italian (Italian ryegrass, Lolium multiflorum); assay: as above; settings: approx. 10 d, 0 = no effect, 100 = complete control
Description: as §1

[12] = test system: barnyardgrass (Echinochloa crus-galli); assay: as above; settings: approx. 10 d, 0 = no effect, 100 = complete control
Description: as §1

kochia (Kochia scoparia) [13] = assay: as above; settings: approx. 10 d, 0 = no effect, 100 = complete control
Description: as §1

[14] = test system: pigweed (Amaranthus retroflexus); assay: as above; settings: approx. 10 d, 0 = no effect, 100 = complete control
Description: as §1

[15] = test system: foxtail, giant (giant foxtail, Setaria faberii); assay: as above; settings: approx. 10 d, 0 = no effect, 100 = complete control
Description: as §1

[16] = test system: sedge, umbrella (small-flower umbrella sedge, Cyperus difformis); assay: Test B flooded paddy test, visual plant response rating; settings: 250 g ai/ha; applied to paddy water at 2-leaf stage; rated after 13 to 15 days; scale 0 to 100, 0 is no effect, 100 is complete control
Description: (§2) At time of treatment, test pots were flooded to 3 cm above the soil surface, treated by application of test compounds directly to the paddy water, and then maintained at that water depth for the duration of the test. Treated plants and controls were maintained in a greenhouse for 13 to 15 days, after which time all species were compared to controls and visually evaluated. Plant response ratings, summarized in Table B, are based on a scale of 0 to 100 where 0 is no effect and 100 is complete control. A dash (-) response means no test result.

[17] = test system: barnyardgrass (Echinochloa crus-galli); assay: as above; settings: 250 g ai/ha; applied to paddy water at 2-leaf stage; rated after 13 to 15 days; scale 0 to 100, 0 is no effect, 100 is complete control
Description: as §2

rice (Oryza sativa) = assay: as above; settings: 250 g ai/ha; applied to paddy water at 2-leaf stage; rated after 13 to 15 days; scale 0 to 100, 0 is no effect, 100 is complete control
Description: as §2

[18] = test system: ducksalad (Heteranthera limosa); assay: as above; settings: 250 g ai/ha; applied to paddy water at 2-leaf stage; rated after 13 to 15 days; scale 0 to 100, 0 is no effect, 100 is complete control
Description: as §2

SMILES	Galium plant response rating (0 to 100 scale) ([1]; 125 g ai/ha)	Galium plant response rating (0 to 100 scale) ([1]; 500 g ai/ha)	Corn plant response rating (0 to 100 scale) (corn (Zea mays); 125 g ai/ha)	Corn plant response rating (0 to 100 scale) (corn (Zea mays); 500 g ai/ha)	Ragweed plant response rating (0 to 100 scale) ([2]; 125 g ai/ha)	Ragweed plant response rating (0 to 100 scale) ([2]; 500 g ai/ha)	Ryegrass, Italian plant response rating (0 to 100 scale) ([3]; 125 g ai/ha)	Ryegrass, Italian plant response rating (0 to 100 scale) ([3]; 500 g ai/ha)	Barnyardgrass plant response rating (0 to 100 scale) ([4]; 125 g ai/ha)	Barnyardgrass plant response rating (0 to 100 scale) ([4]; 500 g ai/ha)	Kochia plant response rating (0 to 100 scale) (kochia (Kochia scoparia) [5]; 125 g ai/ha)	Kochia plant response rating (0 to 100 scale) (kochia (Kochia scoparia) [5]; 500 g ai/ha)	Blackgrass plant response rating (0 to 100 scale) ([6]; 125 g ai/ha)	Blackgrass plant response rating (0 to 100 scale) ([6]; 500 g ai/ha)	Pigweed plant response rating (0 to 100 scale) ([7]; 125 g ai/ha)	Pigweed plant response rating (0 to 100 scale) ([7]; 500 g ai/ha)	Wheat plant response rating (0 to 100 scale) ([8]; 125 g ai/ha)	Wheat plant response rating (0 to 100 scale) ([8]; 500 g ai/ha)	Foxtail, Giant plant response rating (0 to 100 scale) ([9]; 125 g ai/ha)	Foxtail, Giant plant response rating (0 to 100 scale) ([9]; 500 g ai/ha)	other results
CCc1ccc(C2Cn3c(C)nnc3C2C(=O)Nc2cccc(F)c2C)cc1 (stereo not drawn) [Compound 9]	0	20	0	0	0	0	0	20	30	70	0	0	20	70	0	0	0	0	0	50	Ragweed plant response rating (0 to 100 scale) ([10]; 125 g ai/ha): 0; Ragweed plant response rating (0 to 100 scale) ([10]; 500 g ai/ha): 0; Ryegrass, Italian plant response rating (0 to 100 scale) ([11]; 125 g ai/ha): 0; Ryegrass, Italian plant response rating (0 to 100 scale) ([11]; 500 g ai/ha): 0; Barnyardgrass plant response rating (0 to 100 scale) ([12]; 125 g ai/ha): 40; Barnyardgrass plant response rating (0 to 100 scale) ([12]; 500 g ai/ha): 70; Kochia plant response rating (0 to 100 scale) (kochia (Kochia scoparia) [13]; 125 g ai/ha): 0; Kochia plant response rating (0 to 100 scale) (kochia (Kochia scoparia) [13]; 500 g ai/ha): 0; Pigweed plant response rating (0 to 100 scale) ([14]; 125 g ai/ha): 0; Pigweed plant response rating (0 to 100 scale) ([14]; 500 g ai/ha): 0; Foxtail, Giant plant response rating (0 to 100 scale) ([15]; 125 g ai/ha): 60; Foxtail, Giant plant response rating (0 to 100 scale) ([15]; 500 g ai/ha): 90; Plant response rating, Flood, Sedge, Umbrella [16]: 0; Plant response rating, Flood, Barnyardgrass [17]: 20; Plant response rating, Flood, Rice (rice (Oryza sativa)): 15; Plant response rating, Flood, Ducksalad [18]: 75
Cc1ccc(C2Cn3c(C)nnc3C2C(=O)Nc2cccc(F)c2C)cc1C (stereo not drawn) [Compound 10]	0	50	20	40	0	20	0	30	50	90	0	30	0	70	0	0	30	30	30	80	Ragweed plant response rating (0 to 100 scale) ([10]; 125 g ai/ha): 0; Ragweed plant response rating (0 to 100 scale) ([10]; 500 g ai/ha): 0; Ryegrass, Italian plant response rating (0 to 100 scale) ([11]; 125 g ai/ha): 0; Ryegrass, Italian plant response rating (0 to 100 scale) ([11]; 500 g ai/ha): 70; Barnyardgrass plant response rating (0 to 100 scale) ([12]; 125 g ai/ha): 50; Barnyardgrass plant response rating (0 to 100 scale) ([12]; 500 g ai/ha): 90; Kochia plant response rating (0 to 100 scale) (kochia (Kochia scoparia) [13]; 125 g ai/ha): 0; Kochia plant response rating (0 to 100 scale) (kochia (Kochia scoparia) [13]; 500 g ai/ha): 50; Pigweed plant response rating (0 to 100 scale) ([14]; 125 g ai/ha): 0; Pigweed plant response rating (0 to 100 scale) ([14]; 500 g ai/ha): 20; Foxtail, Giant plant response rating (0 to 100 scale) ([15]; 125 g ai/ha): 80; Foxtail, Giant plant response rating (0 to 100 scale) ([15]; 500 g ai/ha): 90; Plant response rating, Flood, Sedge, Umbrella [16]: 0; Plant response rating, Flood, Barnyardgrass [17]: 20; Plant response rating, Flood, Rice (rice (Oryza sativa)): 0; Plant response rating, Flood, Ducksalad [18]: 45
CCc1ccc(C2Cn3cnnc3C2C(=O)Nc2cccc(F)c2F)cc1 (stereo not drawn) [Compound 11]	20	50	0	30	0	30	0	50	70	80	40	50	0	20	0	0	0	20	40	70	Ragweed plant response rating (0 to 100 scale) ([10]; 125 g ai/ha): 0; Ragweed plant response rating (0 to 100 scale) ([10]; 500 g ai/ha): 40; Ryegrass, Italian plant response rating (0 to 100 scale) ([11]; 125 g ai/ha): 0; Ryegrass, Italian plant response rating (0 to 100 scale) ([11]; 500 g ai/ha): 30; Barnyardgrass plant response rating (0 to 100 scale) ([12]; 125 g ai/ha): 70; Barnyardgrass plant response rating (0 to 100 scale) ([12]; 500 g ai/ha): 90; Kochia plant response rating (0 to 100 scale) (kochia (Kochia scoparia) [13]; 125 g ai/ha): 60; Kochia plant response rating (0 to 100 scale) (kochia (Kochia scoparia) [13]; 500 g ai/ha): 70; Pigweed plant response rating (0 to 100 scale) ([14]; 125 g ai/ha): 30; Pigweed plant response rating (0 to 100 scale) ([14]; 500 g ai/ha): 30; Foxtail, Giant plant response rating (0 to 100 scale) ([15]; 125 g ai/ha): 80; Foxtail, Giant plant response rating (0 to 100 scale) ([15]; 500 g ai/ha): 90; Plant response rating, Flood, Sedge, Umbrella [16]: 70; Plant response rating, Flood, Barnyardgrass [17]: 0; Plant response rating, Flood, Rice (rice (Oryza sativa)): 0; Plant response rating, Flood, Ducksalad [18]: 95
O=C(Nc1cccc(F)c1F)C1c2nncn2CC1c1ccc(C(F)(F)F)cc1 (stereo not drawn) [Compound 12]	30	70	0	60	0	50	0	60	30	90	20	60	0	60	0	70	0	40	30	90	Ragweed plant response rating (0 to 100 scale) ([10]; 125 g ai/ha): 0; Ragweed plant response rating (0 to 100 scale) ([10]; 500 g ai/ha): 50; Ryegrass, Italian plant response rating (0 to 100 scale) ([11]; 125 g ai/ha): 40; Ryegrass, Italian plant response rating (0 to 100 scale) ([11]; 500 g ai/ha): 60; Barnyardgrass plant response rating (0 to 100 scale) ([12]; 125 g ai/ha): 20; Barnyardgrass plant response rating (0 to 100 scale) ([12]; 500 g ai/ha): 80; Kochia plant response rating (0 to 100 scale) (kochia (Kochia scoparia) [13]; 125 g ai/ha): 30; Kochia plant response rating (0 to 100 scale) (kochia (Kochia scoparia) [13]; 500 g ai/ha): 80; Pigweed plant response rating (0 to 100 scale) ([14]; 125 g ai/ha): 30; Pigweed plant response rating (0 to 100 scale) ([14]; 500 g ai/ha): 80; Foxtail, Giant plant response rating (0 to 100 scale) ([15]; 125 g ai/ha): 90; Foxtail, Giant plant response rating (0 to 100 scale) ([15]; 500 g ai/ha): 90; Plant response rating, Flood, Sedge, Umbrella [16]: 0; Plant response rating, Flood, Barnyardgrass [17]: 0; Plant response rating, Flood, Rice (rice (Oryza sativa)): 0; Plant response rating, Flood, Ducksalad [18]: 75
